Test results taken from PubChem BioAssay (NCI).
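Briefly, cells in 96-well plates were exposed to five compound concentrations for 48 h, and endpoints were estimated by linear interpolation. Here, GI50 denotes the concentration required for 50% inhibition of growth. TGI: concentration producing complete growth inhibition.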

Legend:
Experiment in all cases: NCI tumour cell line growth inhibition, 48 h
HCT-116 colon = tested on: HCT-116 colon
SNB-19 CNS = tested on: SNB-19 CNS
CCRF-CEM leukemia = tested on: CCRF-CEM leukemia
SF-539 CNS = tested on: SF-539 CNS
IGROV1 ovarian = tested on: IGROV1 ovarian
UO-31 renal = tested on: UO-31 renal
MALME-3M melanoma = tested on: MALME-3M melanoma
MDA-MB-231 breast = tested on: MDA-MB-231 breast
MCF7 breast = tested on: MCF7 breast
HS 578T breast = tested on: HS 578T breast

Structure (SMILES)	TGI (HCT-116 colon) [µM]	TGI (SNB-19 CNS) [µM]	TGI (CCRF-CEM leukemia) [µM]	TGI (SF-539 CNS) [µM]	TGI (IGROV1 ovarian) [µM]	TGI (UO-31 renal) [µM]	TGI (MALME-3M melanoma) [µM]	GI50 (HCT-116 colon) [µM]	GI50 (SNB-19 CNS) [µM]	GI50 (CCRF-CEM leukemia) [µM]	GI50 (SF-539 CNS) [µM]	GI50 (IGROV1 ovarian) [µM]	GI50 (UO-31 renal) [µM]	GI50 (MALME-3M melanoma) [µM]	GI50 (MDA-MB-231 breast) [µM]	TGI (MDA-MB-231 breast) [µM]	GI50 (MCF7 breast) [µM]	TGI (MCF7 breast) [µM]	GI50 (HS 578T breast) [µM]	TGI (HS 578T breast) [µM]
CN(C)CCC(/C=C/c1ccccc1)=N\Nc1ccc(Cl)cc1	13.7	27.5	11	5.32	7.53	4.24	26.2													
COc1ccc(C(=O)C/C(=N/NC(N)=S)C(=O)Nc2ccccc2)cc1	> 100	> 100	> 100	> 100	> 100	> 100	> 100													
C[CH2][Ge]([CH2]C)([CH2]C)[O]C(=O)C([O][Ge]([CH2]C)([CH2]C)[CH2]C)c1ccccc1 (stereo not drawn)	30.2	96.1	> 100	40.5	> 100	28.7	> 100	13.9	32.5	20.6	17.1	29.1	13	16.8						
CCP(C)(C)=O		> 100	> 100	> 100	> 100		> 100													
CC(C)(C)c1cc(-c2c3nc(c(-c4cc(C(C)(C)C)cc(C(C)(C)C)c4)c4ccc([nH]4)c(-c4cc(C(C)(C)C)cc(C(C)(C)C)c4)c4nc(c(-c5cc(C(C)(C)C)cc(C(C)(C)C)c5)c5ccc2[nH]5)C=C4)C=C3)cc(C(C)(C)C)c1	> 100	> 100	> 100	> 100	> 100	> 100	> 100													
CCOC(=O)C1=C(C)N(NC(=O)OC)C2(N)N(NC(=O)OC)C(C)=C(C(=O)OCC)C12C#N (stereo not drawn)	> 100	> 100		> 100	> 100	> 100	> 100													
Cc1ccccc1NC(=O)C(=O)CC(=O)C1CCOC1=O (stereo not drawn)	> 100	> 100	> 100	> 100	> 100	> 100	> 100													
NC1=NCC(c2ccccn2)C1c1ccc(F)cc1 (stereo not drawn)	> 100	> 100	> 100	> 100	> 100	> 100	> 100													
Cc1nc2ccccc2c(/C=C/c2ccccc2)c1C(=O)/C=C/c1ccc(Cl)cc1	1.81		5.24			2.55		0.485		0.481			1.28		1.46	4				
CC1(C)Cc2nnsc2C2=C1C(=O)CCS2		> 100	> 100	> 100	> 100	> 100	> 100													
Cc1cc(S(=O)(=O)Nc2nc3ccccc3[nH]2)c(SCc2ccccc2)cc1Cl	> 100	> 100	24.8	52.8	> 100	> 100		51.6	36	12.3	19.8	82	> 100		18.2	51.5	> 100	> 100	78.1	> 100
C=C(CN(C)Cc1ccccc1)c1ccc(C(=O)Nc2ccccc2N)cc1	21.9	43.2		12.1	9.35	8.41		8.6	6.47		2.02	0.606	2.08		0.739	5.78	16.8	> 50	3.66	33.6
Cc1cccc2c(N=Nc3ccccc3[N+](=O)[O-])c(O)[nH]c12	34	> 74.1	> 43.6	8.96	> 50.5	22.5										6.58		24.3		16.4
CNC1=CC(=O)C2=C(C1=O)C1C3=C(C(=O)C(Br)=C(OC)C3=O)C2c2ccccc21 (stereo not drawn)	5.7	11.6		2.75	3.2	5.87	17.9	1.87	2.82		1.23	1.35	1.98	6.84	1.41	3.17	2.65	26.2	2.72	22.1
COc1cc2c(c(OC)c1OC)C(=O)c1c-2n(CCCN=[N+]=[N-])c(=O)c2cc([N+](=O)[O-])ccc12	> 100	> 100		> 100	> 100	> 100		36.1	72.6		39.2	24.3	69.7		35.8	> 100	27.2	> 100	25.3	> 100
NC(=NCCO)c1ccc(N2CCCN(c3ccc(C(N)=NCCO)cc3)CC2)cc1	> 100	> 100					> 100	> 100	> 100					72.9	> 100	> 100				
O=C([CH-]C(=O)c1ccccc1)c1ccccc1.[CH3-].[CH3-].[CH3-].[Sn+4]	19.1	73		> 100	> 100	40.4	29.6	5.95	14.8		21.7	33.1	12	10.7						
CC(=O)Oc1ccccc1C(=O)NCCC[Se]C#N	5.03	2.95	21.1	3.87	11.2		3.62	1.87	1.57	2.89	2.04	2.24		1.72			2.32	11.7	2.12	6.8
Oc1c(Cl)cc(CN(Cc2cc(Cl)c(O)c(Cl)c2)C2CCCCC2)cc1Cl	> 100	> 100		> 100	> 100	> 100	> 100									> 100		> 100		> 100
COC1C(O)CC(OC2CC(OC3CC(O[C@@H]4C(=O)c5c(cc6cc(OC7CC(OC8CC(O)C(O)C(C)O8)C(O)C(C)O7)c(C)c(O)c6c5O)C[C@H]4[C@H](OC)C(=O)[C@@H](O)[C@@H](C)O)OC(C)C3O)OC(C)C2O)OC1C (stereo partly drawn)	> 100	> 11.1	> 100	0.0312	> 100	0.15	0.243			0.0329		0.0363				> 100				

Structure (SMILES)	TGI (HCT-116 colon) [µM]	TGI (SNB-19 CNS) [µM]	TGI (CCRF-CEM leukemia) [µM]	TGI (SF-539 CNS) [µM]	TGI (IGROV1 ovarian) [µM]	TGI (UO-31 renal) [µM]	TGI (MALME-3M melanoma) [µM]	GI50 (HCT-116 colon) [µM]	GI50 (SNB-19 CNS) [µM]	GI50 (CCRF-CEM leukemia) [µM]	GI50 (SF-539 CNS) [µM]	GI50 (IGROV1 ovarian) [µM]	GI50 (UO-31 renal) [µM]	GI50 (MALME-3M melanoma) [µM]	GI50 (MDA-MB-231 breast) [µM]	TGI (MDA-MB-231 breast) [µM]	GI50 (MCF7 breast) [µM]	TGI (MCF7 breast) [µM]	GI50 (HS 578T breast) [µM]	TGI (HS 578T breast) [µM]
C/C(CC(=O)Nc1ccccc1)=N\NC(N)=S	> 100		> 100	> 100	> 100	> 100	> 100													
COc1ccc(/C(=C\c2cc(OC)c(OC)c(OC)c2)C(=O)O)cc1	> 100	> 100	> 100	39	> 100	97.5	> 100													
Cc1cc(Cl)ccc1N1C(=O)C(=O)C(c2nc3ccccc3o2)C(=O)C1=O	> 100	> 100	> 100	> 100	> 100	> 100	> 100													
O=C1[C@@H]2C(c3ccncc3)=NO[C@@H]2C(=O)N1c1ccc(Cc2ccc(N3C(=O)[C@H]4C(c5ccncc5)=NO[C@H]4C3=O)cc2)cc1			> 100	> 100	> 100	> 100	> 100													
COc1ccc(C2SCC(=O)N2NC(=O)C(O)c2ccccc2)cc1 (stereo not drawn)	> 100	> 100	> 100	> 100	> 100	> 100		> 100	> 100	> 100	> 100	> 100	> 100		> 100	> 100	> 100	> 100	> 100	> 100
CC(=O)OCC1OC(n2c(=S)n(-c3ccccc3)c(=O)c3cc(Br)ccc32)C(OC(C)=O)C(OC(C)=O)C1OC(C)=O (stereo not drawn)	> 100	> 100	> 100	> 100	> 100	> 100	> 100	> 100						> 100						
COC(=O)c1ccc(NC(N)=NCC(C)(C)COc2ccc(C(F)(F)F)cc2)nc1				3.13		2.7	3.48				1.71		1.35	1.72	1.7	3.39	1.52	3.28	1.97	4.33
O=C(Nc1ccccc1[N+](=O)[O-])C(=O)C(C(=O)c1ccccc1-c1ccccc1)C1OC(=O)c2ccccc21 (stereo not drawn)	38.4	33.2	76.1	29.2	51.3	29.8	29.9													
COc1ccc(C2CC(c3cccc(OC)c3)=NN2C(=O)c2cc(OC)c(OC)c(OC)c2)cc1 (stereo not drawn)	> 100	> 100	> 29.6	5.3	> 100	> 100		1.43	3.16	1.84	1.62	1.49	1.59		1.94	> 100	0.367	> 100	1.21	5.37
C=CCN(N=O)C(=O)N(CCCCC(NC(C)=O)C(=O)NCc1ccccc1)Cc1ccccc1 (stereo not drawn)		> 100	80.4	> 100	> 100	91.7	58.9													
OCC#CCCCCOCC#Cc1ccccc1C#CCOCCCCC#CCO	> 100	> 100		33.2	> 100	> 100		22.5	28.9		17.6	46.1	55.5		16.1	38.3	47.5	> 100	25	65.4
CC1NCCc2c1[nH]c1cc(O)ccc21 (stereo not drawn)	> 100	> 100	> 100	> 100	> 100	> 100	> 100													
Cc1nnc2n1N=C(c1ccc(-c3ccc([N+](=O)[O-])cc3)o1)CS2	> 100	> 100		> 100	> 100	> 100	> 100													
CN(C)CCC(=O)N1CCc2c([nH]c3ccccc23)C1c1cccnc1 (stereo not drawn)	> 100	> 100	> 100	> 100	> 100	> 100														
OCCSCC/C(=N\N=C(/CCSCCO)c1ccccc1)c1ccccc1		> 100	> 100	> 100	> 100	> 100	> 100													
Cc1ccc(S(=O)(=O)N[C@@H](Cc2ccccc2)C(=O)CCl)cc1	> 100	47.2		5.68	42	39	40	12.9			2.26	8.25	16.3	18.1			15.5	50.9	21.2	64.1
C/C=C/C=C/CCCCCCCCCCCCC[C@]1(OC)C=CC(CC(=O)OC)OO1 (stereo partly drawn)	29.6		28.7	35.3	20		77.5			6.9		5.61								
Cc1cccc2cc3cccc(C(=O)NCCN(C)C)c3nc12	1.54	6.06	3.53	1.61	> 38.8	0.552	1.11													
Cc1cc(Cl)cc2c1NC(=O)C2(O)CC(=O)c1ccc(F)cc1 (stereo not drawn)	> 100	> 100		> 100	> 100	> 100	75.1													
O=C1c2ccccc2C(=O)c2sc(Nc3ccc(Cl)cc3)nc21	3.4	9.71	4	6.33	6.9	6.35	3.25								1.17	7.38			2.92	14.1
